Measured values taken from PubChem BioAssay AID588780 (Sanford-Burnham Center for Chemical Genomics, 2011).
Active and inactive are the calls of the source.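 Rule for the calls: active = compounds whose fitted half-maximal concentration in the cell-protection dose series is at or below a set limit; inactive = the rest.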

Tested on: H9c2 cardiomyocytes, 2-deoxyglucose stress, ATP luminescence, 2 h
Experiment: H9c2 cell survival under 2-deoxyglucose stress – uHTS hits, dose response (AID 588780)

Row | Structure (SMILES) | IC50
1 | O=C(CCc1nc2ccccc2c(=O)[nH]1)NCCN1C(=O)S/C(=C\c2ccc(OC(F)F)cc2)C1=O | > 79 µM (inactive)
2 | CCOc1ccc(/C=C/C(=O)c2cc(Br)ccc(=O)c2O)cc1 | > 79 µM (inactive)
3 | CCN(CC)C(=O)c1[nH]cnc1C(=O)NCC(=O)OCc1ccccc1 | > 79 µM (inactive)
4 | CCN(CCO)c1ncnc2c1sc1nc(C(C)C)c3c(c12)CC(C)(C)OC3 | > 79 µM (inactive)
5 | Cc1noc(C)c1COC(=O)COc1ccc2c(C)cc(=O)oc2c1 | > 79 µM (inactive)
6 | C[C@H](CO)N1C[C@H](C)[C@@H](CN(C)S(=O)(=O)c2ccc(F)cc2)Oc2ccc(NC(=O)Nc3ccc4c(c3)OCO4)cc2C1=O | 36 µM (inactive)
7 | O=C(CCCn1c(SCC(=O)c2ccc(O)c(O)c2)nc2ccccc2c1=O)NCC1CCCO1 (stereo not drawn) | 38.7 µM (inactive)
8 | COc1ccc(NC(=O)CN(C)C(=O)Cc2n[nH]c(=O)c3ccccc23)cc1 | > 79 µM (inactive)
9 | O=C(COc1cccc2c1CCNC2=O)NC1CCCCC1 | > 79 µM (inactive)
10 | COc1ccc(CC(=O)NCC(=O)N/N=C/c2cc(Br)ccc2OC)cc1 | > 79 µM (inactive)
11 | COc1ccc(OCC(O)Cn2c(Nc3cccc(C)c3)nc3c2c(=O)n(C)c(=O)n3C)cc1 (stereo not drawn) | > 79 µM (inactive)
12 | Oc1ccc2oc3c(c2c1C=NCc1ccncc1)CCCC3 | > 79 µM (inactive)
13 | COc1cccc(CN2CCN(C(=O)c3cc(-c4cccnc4)nc4ccc(C)cc34)CC2)c1 | 22.4 µM
14 | COc1ccc(C(=O)Nc2cc(C)nn2-c2nc3ccccc3[nH]2)c(OC)c1 | 12.3 µM
15 | COc1ccccc1C(=O)NC(=O)COC(=O)Cn1[nH]c(=O)c2ccccc2c1=O | > 79 µM (inactive)
16 | Cc1[nH]c(-c2ccccn2)nc(=S)c1Cl | > 79 µM (inactive)
17 | N#CCSc1nc2cc(C(=O)N3CCC(C(N)=O)CC3)ccc2c2nc3ccccc3n12 | 15 µM
18 | COc1ccc2[nH]c(=O)c(CN(Cc3ccco3)C(c3nnnn3Cc3ccccc3)C(C)C)cc2c1 (stereo not drawn) | > 79 µM (inactive)
19 | CCCN1C(=O)c2cc(C(=O)Nc3cccc(C(C)=O)c3)ccc2C1Nc1cccc(C(C)=O)c1 (stereo not drawn) | 11.4 µM
20 | O=C(CCS(=O)(=O)c1ccccc1)Nc1nc(-c2ccccn2)cs1 | 31.3 µM (inactive)
21 | CCc1cc(C(=O)Nc2nc(-c3ccccn3)cs2)sc1C | > 79 µM (inactive)
22 | COc1ccc(CCNc2nc(-c3cccnc3)nc3ccccc23)cc1OC | > 79 µM (inactive)
23 | Cc1sc2nc(NCCO)[nH]c(=O)c2c1C | > 79 µM (inactive)
24 | CCOc1cc(/C=N\NC(=O)c2ccc(NC(=O)C(C)(C)C)cc2)ccc1OC(=O)c1cccc(C)c1 | 15.3 µM

Row | Structure (SMILES) | IC50
25 | COc1cc(/C=C(\C#N)C(=O)Nc2ccccc2)ccc1OCCN1CCOCC1 | 28.4 µM
26 | Cc1ccc(C(C(=O)NCc2ccccc2)N(Cc2ccco2)C(=O)c2snc(C(N)=O)c2N)o1 (stereo not drawn) | > 79 µM (inactive)
27 | CCOc1ccc2nc(NC(=O)CN3CCC(n4nnc5cc(F)ccc54)CC3)sc2c1 | > 79 µM (inactive)
28 | CCCCOc1ccc(C(=O)N/C(=C\c2ccc(OC)cc2)C(=O)OCc2ccco2)cc1 | > 79 µM (inactive)
29 | C=C1C(C)C2C(Cc3ccccc3)NC(=O)C23OC(=O)/C=C/C(O)CCCC(C)C/C=C/C3C1O (stereo not drawn) | > 79 µM (inactive)
30 | N#CC1=C(N)Oc2c(O)cc3ccccc3c2C1c1ccsc1 (stereo not drawn) | > 79 µM (inactive)
31 | Cn1c(C(=O)Nc2ccc3c(c2)OCCO3)cc2c(=O)n(C)c3ccccc3c21 | > 79 µM (inactive)
32 | CN(CC(=O)Nc1ccccc1Br)C(=O)CCc1nc2ccccc2c(=O)[nH]1 | > 79 µM (inactive)
33 | O=C1NC(=O)c2c(Br)c(Br)c(Br)c(Br)c21 | > 79 µM (inactive)
34 | CC(=O)c1cccc(NC(=O)C(C)OC(=O)CCc2nc3ccccc3c(=O)[nH]2)c1 (stereo not drawn) | > 79 µM (inactive)
35 | CCN(CC)S(=O)(=O)c1cccc(C(=O)N/N=C/c2ccccn2)c1 | > 79 µM (inactive)
36 | O=C(N/N=C/c1ccccn1)c1cc(-c2ccncc2)nc2ccccc12 | > 79 µM (inactive)
37 | CCOC(=O)C1=C(C)Nc2ccccc2N=C1NC(=O)c1oc2ccccc2c1COC | > 79 µM (inactive)
38 | COc1ccc2[nH]c(=O)c(CN(Cc3cccnc3)S(=O)(=O)c3ccccc3F)cc2c1 | > 79 µM (inactive)
39 | Cc1ccc(-c2nn3c(C)nnc3s2)cc1NC(=O)COc1ccc(Cl)cc1 | > 79 µM (inactive)
40 | COc1ccc(CNC(=O)c2ccc(Cn3nc(C)c([N+](=O)[O-])c3C)o2)cc1 | > 79 µM (inactive)
41 | CC(=O)Nc1ccc(Nc2nc(-c3sc(NC(C)=O)nc3C)cs2)cc1 | 14.4 µM
42 | O=C(Oc1ccc(N(Cc2cccs2)C2=NS(=O)(=O)c3ccccc32)cc1)c1ccccc1Cl | > 79 µM (inactive)
43 | Cc1ccc(-c2[nH]c3cc(C(N)=O)ccc3c(=O)c2O)cc1 | > 79 µM (inactive)
44 | Cc1cc(C)cc(OCC(=O)Nc2cccc(-c3nnc(-c4ccco4)o3)c2)c1 | > 79 µM (inactive)
45 | COc1ccc(NC(=O)c2cc(-c3ccccn3)nc3ccccc23)cc1S(=O)(=O)N(C)C | > 79 µM (inactive)
46 | COc1ccccc1OCCSc1nc2ccccc2c(=O)[nH]1 | > 79 µM (inactive)
47 | CCN(CC(=O)Nc1ccc(OC)cc1)C(=O)CCc1nc2ccccc2c(=O)[nH]1 | > 79 µM (inactive)
48 | O=C(Nc1cccc(Cl)c1)c1nc[nH]c1C(=O)NCCCCNC(=O)c1[nH]cnc1C(=O)Nc1cccc(Cl)c1 | > 79 µM (inactive)

Row | Structure (SMILES) | IC50
49 | CCOc1ccc2[nH]c(=O)c(CN(CCO)C(c3nnnn3C3CCCCC3)C(C)C)cc2c1 (stereo not drawn) | > 79 µM (inactive)
50 | CCOc1ccccc1C(=O)N/N=C/c1cccc2cccnc12 | > 79 µM (inactive)
51 | COc1cccc(-c2nnc(NC(=O)c3ccc(S(=O)(=O)N(CC(C)C)CC(C)C)cc3)o2)c1 | > 79 µM (inactive)
52 | COCCn1c(=NC(=O)c2nc3ccccc3s2)sc2cc(S(C)(=O)=O)ccc21 | 28.3 µM
53 | Cc1ccc(Nc2nc(N)[nH]c(=O)c2N=O)cc1 | > 79 µM (inactive)
54 | CCCn1c(=O)c(C(=O)NCCc2ccc(Cl)cc2)c(O)c2ccccc21 | 11 µM
55 | Cc1ccc(-c2n[nH]c(=O)c3ccccc23)cc1S(=O)(=O)NCCO | 39.8 µM (inactive)
56 | COc1ccccc1OCC(=O)Nc1sc2c(c1C(=O)NCC1CCCO1)CCC2 (stereo not drawn) | > 79 µM (inactive)
57 | COc1ccc(Nc2nnc(-c3ccc(O)cc3)c3ccccc23)cc1C(N)=O | > 79 µM (inactive)
58 | Cc1ccc2nc(SCc3nc4ccccc4c(=O)[nH]3)[nH]c2c1 | > 79 µM (inactive)
59 | CN1CCN(Cc2nc3ccccc3c(=O)[nH]2)CC1 | > 79 µM (inactive)
60 | COc1cccc(-c2cnc3c(NC=O)cc(-c4cc(C)c(O)c(C)c4)cn23)c1 | 10.2 µM
61 | Cc1[nH]c2ccccc2c1/C=N/NC(=O)c1cc(-c2ccccc2)n[nH]1 | > 79 µM (inactive)
62 | O=c1cc(CN2CCN(S(=O)(=O)c3cccc(Cl)c3)CC2)c2ccc(O)cc2o1 | > 79 µM (inactive)
63 | CC(=O)Nc1ccc(C(=O)Nc2nc(-c3ccccn3)cs2)cc1 | 32.1 µM (inactive)
64 | CC(=O)Nc1cccc(-c2cc(NC=O)c3ncc(-c4ccc(C(C)=O)cc4)n3c2)c1 | > 79 µM (inactive)
65 | COc1ccc2[nH]c(=O)c(CNc3ccc(C)c(C)c3)cc2c1 | 49.8 µM (inactive)
66 | Cc1ccc(S(=O)(=O)N(C)C)cc1NC(=O)COC(=O)Cc1n[nH]c(=O)c2ccccc12 | > 79 µM (inactive)
67 | Cc1ccc(C(=O)CSc2nc3ccccc3c(=O)[nH]2)cc1 | > 79 µM (inactive)
68 | Cc1c(O)ccc2c3c(c(=O)oc12)CCC(C)C3 (stereo not drawn) | 15.9 µM
69 | COCCCNC(=O)/C(C#N)=C1\N=C(NC(=O)c2cccs2)c2ccccc21 | > 79 µM (inactive)
70 | Cc1csc(SCc2nc3sc4c(c3c(=O)[nH]2)CCC4)n1 | > 79 µM (inactive)
71 | Cc1ccc(N2CC(C(=O)NCc3n[nH]c(=O)c4ccccc34)CC2=O)cc1C (stereo not drawn) | > 79 µM (inactive)
72 | COc1cccc(-c2nnc3sc(-c4ccccn4)nn23)c1 | > 79 µM (inactive)

Row | Structure (SMILES) | IC50
73 | O=C(NN=Cc1cccc([N+](=O)[O-])c1)c1cc(-c2cccnc2)nc2ccccc12 | > 79 µM (inactive)
74 | Cc1cccc(-n2[nH]c(C)c(C=Nc3ccc4[nH]c(=O)[nH]c4c3)c2=O)c1 | > 79 µM (inactive)
75 | CSCC[C@H](NC(=O)OC(C)(C)C)C(=O)N/N=C/c1cccc2cccnc12 | 30.9 µM (inactive)
76 | O=C(COC(=O)Cn1[nH]c(=O)c2ccccc2c1=O)Nc1ncc(Cl)cc1Cl | > 79 µM (inactive)
77 | Cn1c(=O)c2c(nc(NCc3cccnc3)n2Cc2cccc(C(F)(F)F)c2)n(C)c1=O | > 79 µM (inactive)
78 | COc1ccc(N(C(=O)c2cccc([N+](=O)[O-])c2)S(=O)(=O)c2cccs2)cc1 | 13.4 µM
79 | Cc1ncc(CO)c2cc(C(=O)Nc3ccccc3Cl)c(=Nc3cccc(C(N)=O)c3)oc12 | > 79 µM (inactive)
80 | O=C(OCC(=O)N1CCCCCC1)c1n[nH]c(=O)c2ccccc12 | > 79 µM (inactive)
81 | CC1(NC(=O)CCc2nc3ccccc3c(=O)[nH]2)CCS(=O)(=O)C1 (stereo not drawn) | > 79 µM (inactive)
82 | COc1cccc(OC)c1C(=O)Nc1cc(C)nn1-c1nc2ccccc2[nH]1 | > 79 µM (inactive)
83 | Cc1cccc(/N=C/c2c(O)ccc3oc4c(c23)CCCC4)n1 | > 79 µM (inactive)
84 | O=C(NCc1ccco1)C(c1ccccc1)N(C(=O)Cc1cccs1)c1ccccc1F (stereo not drawn) | > 79 µM (inactive)
85 | CCCn1nc(C(=O)Nc2nc(-c3ccccn3)cs2)c2ccccc2c1=O | > 79 µM (inactive)
86 | Cc1[nH]c2ccccc2c1C(=O)CSc1nc2ccccc2[nH]1 | > 79 µM (inactive)
87 | c1ccc(N2CCOCC2)c(Nc2nc3ccccc3n3cnnc23)c1 | 23.4 µM
88 | CCOc1ccc(C(C(=O)NCC2CCCO2)N(C(=O)c2snc(C(N)=O)c2N)c2ccccc2F)cc1 (stereo not drawn) | 20.6 µM
89 | Cc1cc(C)c2ccc(NN)nc2c1O | > 79 µM (inactive)
90 | O=C(NCc1n[nH]c(=O)c2ccccc12)C1CC(=O)N(c2ccccc2)C1 (stereo not drawn) | 43 µM (inactive)
91 | CC(C)(C)OC(=O)N1CCC(NC(=O)c2nc[nH]c2C(=O)NCC(=O)OCc2ccccc2)CC1 | > 79 µM (inactive)
92 | C=CCn1cnc2c(c1=O)c1nc3ccccc3nc1n2/N=C/c1cc(OC)c(OC)c(OC)c1 | > 79 µM (inactive)
93 | O=C(Nc1ccccc1)c1cccc2c(-c3cccnc3)coc12 | > 79 µM (inactive)
